Legend:
Male Sprague-Dawley rats [1] = experiment: PIXIMUS (DEXA) analysis of femur distal marrow cavity BMD after left femur bone marrow ablation (bmx), Groups A-J; type: in vivo, rat
Text: FIG. 1 is a graphical representation of the results of a PIXIMUS analysis of the femur distal marrow cavity bone mineral density (“BMD”) of groups of laboratory rats which were sacrificed at one-week intervals during a three-week test regimen. The PIXIMUS analyzer is available from Lunar Corp., Palo Alto, Calif. and provides Dual Energy X-Ray Absorptiometry (“DEXA”) data for small animals such as mice and rats. Male Sprague-Dawley rats (5 animals per group) aged 9 weeks were sacrificed and tested at time 0 and after 1, 2 and 3 weeks. The various groups were subjected to the following treatment modalities: Group A—left femur control; Group B—left femur sham; Group C—mechanical bone marrow ablation (bmx) to alter the contents of the bone marrow cavity of the left femur; Group D—mechanical bone marrow ablation treatment (bmx) of the left femur, coupled with the administration of an amidated parathyroid hormone truncate (PTH[1-34]-NH2) during days 1-21; and Group E—a right (non-bmx) femur BMD measurement of rats treated during days 1-21 with an amidated parathyroid hormone truncate (PTH[1-34]-NH2) wherein the rat's left femur had undergone a bone ablation (bmx) treatment;
FIG. 2 is a graphical representation of the results of a PIXIMUS analysis of the femur distal marrow cavity BMD of a second set of groups of male Sprague-Dawley rats (5 animals per group) aged 9 weeks which were sacrificed and tested at time 0 and after 1, 2 and 3 weeks. The various groups were subjected to the following treatment modalities: Group F—left femur control; Group G—left femur sham; Group H—mechanical bone marrow ablation (bmx) to alter the contents of the bone marrow cavity of the left femur; Group I—mechanical bone marrow ablation (bmx) of the left femur, coupled with administration of an amidated parathyroid hormone truncate (PTH[1-34]-NH2) during days 1-7, followed by the administration of a salmon calcitonin (sCT) antiresorptive agent during days 7-21; and Group J—a right femur BMD measurement of rats treated with an amidated parathyroid hormone truncate (PTH[1-34]-NH2) wherein the rat's left femur had undergone a bone marrow ablation (bmx) treatment;
Absent the bone anabolic agent, the initial burst of bone formation is quickly followed by the resorption of newly formed bone by osteoclasts (see, e.g., the Group C curve in FIG. 1). […] Table 1 (below) sets forth the values upon which the curves obtained with Groups A-E in FIG. 1 are based. As no readings were taken for the Control (Group A) and Sham (Group B) groups at Week 1 and Week 2, these values were estimated for purposes of preparing the curves for these two Groups. Table 1, moreover, provides the standard deviations for the values obtained in each Group, which standard deviations are also indicated in FIG. 1.
As indicated herein the bmx treatment was always administered to the rats' left femur and never to the right femur. The non-ablated contralateral femur was analyzed, however, throughout the testing protocols described herein as a control used for detecting the systemic effect of the bone anabolic agent. That is, the results achieved with the contralateral (right) femur permit one to exclude the effect attributable to the bmx treatment. Moreover, analysis of the rats' right femur control also enabled the inventors to determine whether the bmx treatment of the left femur had any effect on other skeletal sites located within the body of the rat.
FIG. 2 is provided to illustrate, inter alia, the further beneficial effect achieved due to the overlapping (i.e., with PTH administration) or subsequent administration of the antiresorptive agent salmon calcitonin (sCT). First, a comparison of the curves obtained with Group H (bmx alone) and Group J (PTH+sCT with no bmx) to that obtained with Group I (bmx PTH+sCT) provide still further evidence of the synergistic effect attributable to the use of the method of the invention. […]

Male Sprague-Dawley rats [2] = experiment: Serum osteocalcin concentration on day of sacrifice, Groups A-J; type: in vivo, rat; conditions: bmx rats; for serum osteocalcin level, in words: up to 21 days; for Osteocalcin mean: serum
Text: FIG. 5 provides a series of measurements of the serum osteocalcin concentration (in ng/ml) in the blood of the rats which are the subjects of FIGS. 3-4 on the day of sacrifice. The meaning of the abbreviations is the same as that in FIGS. 3-4;
FIG. 5 provides a graphical representation of the osteocalcin levels determined, at the time of sacrifice, in the serum of rats subjected to the following treatment modalities: bmx+PBS; bmx+ parathyroid hormone (PTH[1-34]-NH2); bmx+salmon calcitonin (CT); and bmx+ parathyroid hormone (PTH[1-34]-NH2)+CT. It is well known by those of ordinary skill in this art that osteocalcin is a biochemical marker related to the number of osteoblasts, i.e, a measure of new bone growth, which may be measured in the blood serum of the animal. […] That is, administering CT reduces the rate of bone turn-over.
Table 4 additionally provides the standard deviations for the values obtained during each of the indicated analyses, which standard deviations are also indicated in FIG. 5.
On the day of sacrifice, each rat was euthanized in a CO2 chamber. The rat's blood was then collected via a cardiac puncture. The femurs were removed and fixed in a 4% formalin solution, after which they were dehydrated in a graded series of ethanol solutions.
The bones were thereafter subjected to a variety of sample analysis techniques. These included X-ray analysis wherein the femurs were X-rayed in individually sealed plastic bags; PIXIMUS analysis using a Lunar PIXIMUS scanner to measure bone mineral density in the bone marrow cavity of the femurs; MicroCT analysis; and blood analysis for osteocalcin, PTH, CT, NTX and growth factors.

Row | Substance | bone formation / resorption by DEXA BMD curves, in words (Male Sprague-Dawley rats [1]; left femur with bmx) | BMD (DEXA) (Male Sprague-Dawley rats [1]; left femur with bmx, Week 0) | BMD (DEXA) (Male Sprague-Dawley rats [1]; left femur with bmx, Week 1) | BMD (DEXA) (Male Sprague-Dawley rats [1]; left femur with bmx, Week 2) | BMD (DEXA) (Male Sprague-Dawley rats [1]; left femur with bmx, Week 3) | BMD (DEXA) (Male Sprague-Dawley rats [1]; right (non-bmx) femur, Week 0) | BMD (DEXA) (Male Sprague-Dawley rats [1]; right (non-bmx) femur, Week 1) | BMD (DEXA) (Male Sprague-Dawley rats [1]; right (non-bmx) femur, Week 2) | BMD (DEXA) (Male Sprague-Dawley rats [1]; right (non-bmx) femur, Week 3) | serum osteocalcin level, in words (Male Sprague-Dawley rats [2]) | Osteocalcin mean (Male Sprague-Dawley rats [2]; Day 0) [ng/mL] | Osteocalcin mean (Male Sprague-Dawley rats [2]; Day 7) [ng/mL] | Osteocalcin mean (Male Sprague-Dawley rats [2]; Day 14) [ng/mL] | Osteocalcin mean (Male Sprague-Dawley rats [2]; Day 21) [ng/mL]
1 | PTH[1-34]-NH2 | unexpected increase in degree, speed and longevity of bone formation | 0.096 ± .007 gm/cm^2 | 0.166 ± .004 gm/cm^2 | 0.200 ± .030 gm/cm^2 | 0.190 ± .008 gm/cm^2 | 0.097 ± .008 gm/cm^2 | 0.124 ± .007 gm/cm^2 | 0.141 ± .007 gm/cm^2 | 0.154 ± .007 gm/cm^2 | highest and most consistent level of osteocalcin | 108.2 | 125.5 | 125.4 | 117.8
2 | salmon calcitonin [CT, reference compound] | significantly diminishes the proportion of the newly formed bone which is resorbed | – | – | – | – | – | – | – | – | relatively steady state value of osteocalcin | 108.2 | 100.5 | 101 | 69.5
